The text below walks through data of patent US10941139B2, “Cryptophycin compounds and conjugates, their preparation and their therapeutic use” (priority 2015, dated 2021).

Where “and” joins values, the source holds several entries; their conditions need not be identical. Equal entries are not always repeated. Where two headings read alike, the source gives them in different places.

The conditions of data set [1]: 16-membered ring.
A further data set concerns HCT116 cells. Briefly: Inhibition of proliferation of the HCT116 cell line by the cryptophycin compounds of formula (I) (14C-thymidine incorporation). It is filed as cell-based. Conditions: tested as pure β epoxide or α/β epoxide mixture (structural comment). The method, then: (§1) Evaluation of the Inhibition of Proliferation of the HCT116 and MDA-MB-231 Cell Lines by the Cryptophycin Compounds of Formula (I)
(§2) HCT116 and MDA-MB-231 cells in their exponential growth phase were trypsinized and resuspended in their respective culture medium (DMEM/F12 Gibco #21331, 10% FCS Gibco #10500-056, […] Gibco #25030 for the MDA-MB-231 cells; DMEM Gibco #11960, 10% FCS Gibco #10500-056, 2 mM glutamine Gibco #25030 for the HCT116 cells). The cell suspension was seeded in Cytostar 96-well culture plates (GE Healthcare Europe, # RPNQ0163) in the whole culture medium containing serum at a density of 5000 cells/well. After incubation for 4 h, successive dilutions of the cryptophycin compounds were added to the wells at concentrations decreasing from 10^−7 to 10^−12 M (in triplicate for each concentration). The cells were cultured at 37° C. in an atmosphere containing 5% CO2 in the presence of the cryptophycin compounds for 3 d. On the 4th day, 10 μl of a ^14C-thymidine solution (0.1 μCi/well, Perkin Elmer # NEC56825000) were added to each well. The incorporation of ^14C-thymidine was measured 96 h after the start of the experiment with a microbeta radioactivity counter (Perkin Elmer). The data were expressed in the form of a percentage of survival by determining the ratio between the reduced count obtained with the cells treated with the cryptophycin compound and the count obtained with the cells of the control wells (treated with the culture medium alone).
(§3) The inhibitory activity is given by the concentration which inhibits 50% of the activity.
In general terms: Dividing cells build labelled thymidine or BrdU into new DNA.

A further data set has as its system MDA-MB-231 cells. Briefly: Inhibition of proliferation of the MDA-MB-231 cell line by the cryptophycin compounds of formula (I) (14C-thymidine incorporation). It is filed as cell-based. Conditions: 14C-thymidine incorporation at 96 h, tested as pure β epoxide or α/β epoxide mixture (structural comment), read-out: IC50 (pM) MDA-MD-231. The method, then:
as §1, §2, §3

The next data set has as its system lung cancer. The following applies: two phase II lung cancer trials; cited from earlier work.
Setting [2] is: Homo sapiens, HCT-116, 14C-thymidine incorporation at 96 h.

In the case of “(3S,10R,16S,E)-16-((R,E)-4-(4-(azidomethyl)phenyl)but-3-en-2-yl)-10-(3-chloro-4-methoxybenzyl)-3-isobutyl-6,6-dimethyl-1-oxa-4,8,11-triazacyclohexadec-13-ene-2,5,9,12-tetraone”, the ring closure, isolated yield in data set [1] (amide bond) was found to be 68%. As a reminder, the IC50 is the point on the concentration scale where inhibition reaches its midpoint. With `COc1ccc(C[C@H]2NC(=O)/C=C/C[C@@H]([C@H](C)[C@H]3O[C@@H]3c3ccccc3)OC(=O)[C@H](CC(C)C)OC(=O)C(C)(C)CNC2=O)cc1Cl` [C-52, cryptophycin C-52, reference compound], the IC50 with HCT116 cells (14C-thymidine incorporation at 96 h) stood at 76 pM; in the data set on MDA-MB-231 cells, 90 pM. Also, the stable disease in the data set with lung cancer is listed as 30-40%. In turn, “(3S,7S,10R,16S, E)-10-(3-chloro-4-methoxybenzyl)-16-((R)-1-((4-methoxy-benzyl)oxy)propan-2-yl)-6,6,7-trimethyl-3-neopentyl-1-oxa-4,8,11-triazacyclohexadec-13-ene-2,5,9,12-tetraone” displayed a ring closure, isolated yield in data set [1] (rcm bond) of 61%.

Take “(3S,10R,16S,E)-10-(3-chloro-4-methoxybenzyl)-6-(hydroxymethyl)-16-((R)-1-((4-methoxybenzyl)oxy)propan-2-yl)-6-methyl-3-neopentyl-1-oxa-4,8,11-triazacyclohexadec-13-ene-2,5,9,12-tetraone”: in data set [1] (rcm bond), the ring closure, isolated yield was 56% and 37%. As for `COc1ccc(C[C@H]2NC(=O)/C=C/C[C@@H]([C@H](C)[C@H]3O[C@@H]3c3ccc(CO)cc3)OC(=O)[C@H](CC(C)(C)C)NC(=O)C(C)(C)C(C)NC2=O)cc1Cl` (stereo partly drawn) [Ex. 11, (3S,10R,16S,E)-10-(3-chloro-4-methoxybenzyl)-16-((S)-1-((2R,3R)-3-(4-(hydroxymethyl)phenyl)oxiran-2-yl)ethyl)-6,6,7-trimethyl-3-neopentyl-1-oxa-4,8,11-triazacyclohexadec-13-ene-2,5,9,12-tetraone], in the data set with MDA-MB-231 cells (Homo sapiens, MDA-MB-231), the concentration for half-maximal inhibition (IC50) stood at 102 pM. As for `COc1ccc(C[C@H]2NC(=O)/C=C/C[C@@H]([C@H](C)[C@H]3O[C@@H]3c3ccc(CO)cc3)OC(=O)[C@H](CC(C)(C)C)NC(=O)C(C)(C)CNC2=O)cc1Cl` [Ex. 4, (3S,10R,16S,E)-10-(3-chloro-4-methoxybenzyl)-16-((S)-1-((2R,3R)-3-(4-(hydroxy-methyl)phenyl)oxiran-2-yl)ethyl)-6,6-dimethyl-3-neopentyl-1-oxa-4,8,11-triazacyclohexadec-13-ene-2,5,9,12-tetraone], the half-maximal inhibitory concentration (IC50) stood at 51 pM in the data set with HCT116 cells (setting [2]) and 82 pM with MDA-MB-231 cells (Homo sapiens, MDA-MB-231). Turning to `COc1ccc(C[C@H]2NC(=O)/C=C/C[C@@H]([C@H](C)C3OC3c3ccc(CN)cc3)OC(=O)[C@H](CC(C)C)NC(=O)C(C)(C)C(C)NC2=O)cc1Cl` (stereo partly drawn) [Ex. 8, (3S,10R,16S,E)-16-((S)-1-(3-(4-(aminomethyl)phenyl)oxiran-2-yl)ethyl)-10-(3-chloro-4-methoxybenzyl)-3-isobutyl-6,6,7-trimethyl-1-oxa-4,8,11-triazacyclohexadec-13-ene-2,5,9,12-tetraone], the half-inhibitory concentration (IC50) is 518 pM in the data set on HCT116 cells (setting [2]) and 564 pM with MDA-MB-231 cells (Homo sapiens, MDA-MB-231).

`COc1ccc(C[C@H]2NC(=O)/C=C/C[C@@H]([C@H](C)[C@H]3O[C@@H]3c3ccc(CN)cc3)OC(=O)[C@H](CC(C)C)NC(=O)C(C)(C)CNC2=O)cc1Cl` [Ex. 1, (3S,10R,16S,E)-16-((S)-1-((2R,3R)-3-(4-(aminomethyl)phenyl)oxiran-2-yl)ethyl)-10-(3-chloro-4-methoxybenzyl)-3-isobutyl-6,6-dimethyl-1-oxa-4,8,11-triazacyclohexadec-13-ene-2,5,9,12-tetraone]: the IC50 with HCT116 cells (setting [2]) came to 163 pM; with MDA-MB-231 cells (Homo sapiens, MDA-MB-231) it was 250 pM.

In data set [1] (amide bond), “(3S,10R,16S, E)-10-(3-chloro-4-methoxybenzyl)-16-((R,E)-4-(4-(hydroxymethyl)-phenyl)but-3-en-2-yl)-6,6-dimethyl-3-neopentyl-1-oxa-4,8,11-triazacyclohexadec-13-ene-2,5,9,12-tetraone” returned a ring closure, isolated yield of 70%.

In the case of `COc1ccc(C[C@H]2NC(=O)/C=C/C[C@@H]([C@H](C)[C@H]3O[C@@H]3c3ccc(CN)cc3)OC(=O)[C@H](CC(C)C)NC(=O)C(C)(C)C(C)NC2=O)cc1Cl` (stereo partly drawn) [Ex. 18, (3S,10R,16S,E)-16-((S)-1-((2R,3R)-3-(4-(aminomethyl)phenyl)oxiran-2-yl)ethyl)-10-(3-chloro-4-methoxybenzyl)-3-isobutyl-6,6,7-trimethyl-1-oxa-4,8,11-triazacyclohexadec-13-ene-2,5,9,12-tetraone], the half-inhibitory concentration (IC50) with HCT116 cells (setting [2]) was determined as 179 pM; in the data set with MDA-MB-231 cells (Homo sapiens, MDA-MB-231), 228 pM. As to `COc1ccc(C[C@H]2NC(=O)/C=C/C[C@@H]([C@H](C)C3OC3c3ccc(CO)cc3)OC(=O)[C@H](C)NC(=O)C(C)(C)CNC2=O)cc1Cl` (stereo partly drawn) [Ex. 15, (3S,10R,16S,E)-10-(3-chloro-4-methoxybenzyl)-16-((S)-1-(3-(4-(hydroxy-methyl)phenyl)oxiran-2-yl)ethyl)-3,6,6-trimethyl-1-oxa-4,8,11-triazacyclohexadec-13-ene-2,5,9,12-tetraone], the IC50 with MDA-MB-231 cells (Homo sapiens, MDA-MB-231) came to 511 pM. Consider “(3S,10R,16S,E)-16-((S)-1-((2R,3R)-3-(4-(aminomethyl)phenyl)oxiran-2-yl)ethyl)-10-(3-chloro-4-methoxybenzyl)-6-methyl-3-neopentyl-6-(((triethylsilyl)oxy)methyl)-1-oxa-4, 8,11-triazacyclohexadec-13-ene-2,5,9,12-tetraone [Ex. 32]”, for which the half-maximal inhibitory concentration (IC50) in the data set with MDA-MB-231 cells came out at 1780 pM. Turning to “(3S,10R,16S, E)-10-(3-chloro-4-methoxybenzyl)-16-((R,E)-4-(4-(hydroxymethyl)-phenyl)but-3-en-2-yl)-6,6,7-trimethyl-3-neopentyl-1-oxa-4,8,11-triazacyclohexadec-13-ene-2,5,9,12-tetraone”, in data set [1] (amide bond), the ring closure, isolated yield stood at 54%.

Turning to `COc1ccc(C[C@H]2NC(=O)/C=C/C[C@@H]([C@H](C)C3OC3c3ccc(CO)cc3)OC(=O)[C@H](C(C)(C)C)NC(=O)C(C)(C)CNC2=O)cc1Cl` (stereo partly drawn) [Ex. 17, (3S,10R,16S,E)-10-(3-chloro-4-methoxybenzyl)-16-((S)-1-(3-(4-(hydroxy-methyl)phenyl)oxiran-2-yl)ethyl)-3-tert-butyl-6,6-dimethyl-1-oxa-4,8,11-triazacyclohexadec-13-ene-2,5,9,12-tetraone], the IC50 with MDA-MB-231 cells (Homo sapiens, MDA-MB-231) was 856 pM. In data set [1] (amide bond), “(3S,10R,16S, E)-16-((R,E)-4-(4-(azidomethyl)phenyl)but-3-en-2-yl)-10-(3-chloro-4-methoxybenzyl)-3-isobutyl-6,6,7-trimethyl-1-oxa-4,8,11-triazacyclohexadec-13-ene-2,5,9,12-tetraone” yielded a ring closure, isolated yield of 53%. Consider `COc1ccc(C[C@H]2NC(=O)/C=C/C[C@@H]([C@H](C)C3OC3c3ccc(CO)cc3)OC(=O)[C@H](C(C)C)NC(=O)C(C)(C)CNC2=O)cc1Cl` (stereo partly drawn) [Ex. 16, (3S,10R,16S,E)-10-(3-chloro-4-methoxybenzyl)-16-((S)-1-(3-(4-(hydroxy-methyl)phenyl)oxiran-2-yl)ethyl)-6,6-dimethyl-3-isopropyl-1-oxa-4,8,11-triazacyclohexadec-13-ene-2,5,9,12-tetraone], for which the IC50 in the data set with MDA-MB-231 cells (Homo sapiens, MDA-MB-231) came to 2820 pM.
